Assay type in all cases: binding
Assay [1] deals with human PCSK9 / human LDLR EGFa domain interaction (Homo sapiens, UniProt Q8NBP7). Kind of assay: TR-FRET assay of inhibition of the PCSK9-LDLR protein-protein interaction. The conditions noted are these: 20 nM avitag-biotinylated human PCSK9, 20 nM his-tagged human LDLR EGFa domain, 2 hours, room temperature. Summed up:
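Biotinylated PCSK9 (20 nM) and His-tagged LDLR EGFa domain (20 nM) were incubated 2 h at room temperature with 5 nM Ulight-streptavidin and 5 nM Eu-anti-His in HEPES/NaCl/CaCl2 buffer with 0.01% BSA and 0.01% P20. TR-FRET was read; half-maximal inhibitory concentrations came from 4-parameter dose-response fits.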

The target of assay [2] is T1, PCSK9 (Homo sapiens, UniProt Q8NBP7). Kind of assay: PCSK9 Alexa FRET Plus assay (displacement of AlexaFluor647 tagged cyclic peptide Reagent B). The conditions noted are these: 0.5 nM PCSK9, 960 nM AF cyclic peptide Reagent B. The method, then:
A solution containing 1 nM biotinylated PCSK9+2.5 nM Lance Streptavidin Europium (Strep-Eu) was made in 50 mM HEPES pH 7.4, 0.15 M NaCl, 5 mM CaCl2), 0.01% BSA, and 0.01% Surfactant P20. A separate solution containing 1920 nM of the AlexaFluor tagged cyclic peptide was made in the same buffer system. An Echo was used to transfer 0.075 ul of compound plus 0.675 ul of DMSO to each well of an assay plate followed by the addition of 15 ul of PCSK9+Stept-Eu and 15 ul of AF peptide. The final assay volume was 30.750 ul containing 0.5 nM PCSK9, 1.25 nM Strep-Eu, and 960 nM AF cyclic peptide. The reaction was incubated at room temperature for at least two hours prior to fluorescence measurements using an Envision Multilabel Reader. IC50 values were determined by fitting data to a sigmoidal dose-response curve using nonlinear regression. Ki was then calculated from the IC50 and the KD of AF cyclic peptide. Counts (B-counts) of the europium-labeled PCSK9 were followed to observe if compounds were adversely affecting PCSK9. A fall off of the B-counts likely indicated a false positive of inhibition. Data from this procedure was reported as “P=‘numerical value’ (nanomolar)”

The target in assay [3] is T1, PCSK9. In words: PCSK9 Alexa FRET Standard assay (displacement of AlexaFluor647 tagged cyclic peptide Reagent A). The settings on record: 0.5 nM PCSK9, 20 nM AF cyclic peptide Reagent A. Summed up: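 TR-FRET displacement: 0.5 nM biotinylated PCSK9 with 1.25 nM Strep-Eu and 20 nM AlexaFluor-tagged cyclic peptide (final) in 50 mM HEPES pH 7.4, 0.15 M NaCl, 5 mM CaCl2, 0.01% BSA, 0.01% P20, ≥2 h at room temperature. IC50 from sigmoidal fit, converted to Ki via peptide KD; falling Eu counts flagged false positives.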

Structures are written as SMILES. Numbered stars: 1 amine (or outer) side, 2 acyl side, 3 side chain; on linkers, the order of the positions; unused ones are H or OH. Bridge positions count the residues as written; N and C are the ends. Square brackets hold non-standard residues; d marks the D form. Peptide text beside a SMILES is read from it. X3 = O=C([C@@H]1C[C@@H](SCc2ccc(C[*:3])cc2)CN1[*:1])[*:2]; X2 = O=C([C@@H]1C[C@@H](SC/C=C/C[*:3])CN1[*:1])[*:2]; Trp(7-aza) = N[C@@H](Cc1c[nH]c2ncccc12)C(=O)O; X1 = C[C@@](N[*:1])(C(=O)[*:2])c1ccccc1; 1Nal = N[C@@H](Cc1cccc2ccccc12)C(=O)O; mXylylene = c1cc(C[*:1])cc(C[*:2])c1; NH(CH2)5NH = C(CCN[*:1])CCN[*:2]; Aad = N[C@@H](CCCC(=O)O)C(=O)O; Pen = CC(C)(S)[C@H](N)C(=O)O; Tle = CC(C)(C)[C@H](N)C(=O)O; αMeV = CC(C)[C@](C)(N)C(=O)O; S5 = C=CCCC[C@](C)(N)C(=O)O; Nva = CCC[C@H](N)C(=O)O; Thp = NC1(C(=O)O)CCOCC1; Aib = CC(C)(N)C(=O)O

T1 sequence (Q8NBP7 153-692): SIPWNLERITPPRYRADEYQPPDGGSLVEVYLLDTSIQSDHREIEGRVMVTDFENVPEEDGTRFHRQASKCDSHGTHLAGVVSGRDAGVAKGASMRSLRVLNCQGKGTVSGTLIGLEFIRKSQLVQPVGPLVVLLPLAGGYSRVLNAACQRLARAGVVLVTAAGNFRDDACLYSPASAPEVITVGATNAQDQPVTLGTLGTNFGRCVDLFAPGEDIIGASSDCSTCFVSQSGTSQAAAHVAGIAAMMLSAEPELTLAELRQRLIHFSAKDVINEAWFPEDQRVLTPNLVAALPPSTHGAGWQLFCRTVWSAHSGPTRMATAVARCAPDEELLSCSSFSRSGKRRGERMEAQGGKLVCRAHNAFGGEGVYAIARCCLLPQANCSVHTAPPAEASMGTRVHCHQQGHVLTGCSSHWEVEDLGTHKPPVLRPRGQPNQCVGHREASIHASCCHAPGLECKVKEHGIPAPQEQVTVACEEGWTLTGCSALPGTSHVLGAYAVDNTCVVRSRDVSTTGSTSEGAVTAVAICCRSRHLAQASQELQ
Chain of human PCSK9 / human LDLR EGFa domain interaction (Q8NBP7 153-692): as above
Chain of human PCSK9 / human LDLR EGFa domain interaction (Q8NBP7 31-152 partner limits assumed): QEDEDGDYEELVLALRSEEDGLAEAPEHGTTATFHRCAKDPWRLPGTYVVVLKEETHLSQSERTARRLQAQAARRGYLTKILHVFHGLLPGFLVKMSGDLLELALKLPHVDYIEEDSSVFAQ

Regarding `CC(=O)N[C@H]1CSCc2cccc(c2)CSC[C@H](C(N)=O)NC(=O)[C@H]([C@@H](C)O)NC(=O)[C@](C)(C(C)C)NC(=O)[C@H](Cc2ccc(O)cc2)NC(=O)[C@H](C)NC(=O)C2(CCOCC2)NC(=O)[C@H](Cc2c[nH]c3ncccc23)NC(=O)[C@H]([C@@H](C)O)NC(=O)[C@@H]2CCCN2C(=O)[C@H](Cc2ccc(O)cc2)NC(=O)[C@H](C(C)(C)C)NC1=O` [Compound 187] (Ac-C[Tle]YPT[Trp(7-aza)][Thp]AY[αMeV]T[dC]-NH2; linker 1-12 via mXylylene), the IC50 (in assay [1]; on PCSK9 [2]; at PCSK9 [3]) was 1 to 100 nM each time.

With `CC(=O)N[C@H]1CSCc2cccc(c2)CSC[C@H](C(N)=O)NC(=O)[C@H]([C@@H](C)O)NC(=O)[C@](C)(C(C)C)NC(=O)[C@H](Cc2ccc(O)cc2)NC(=O)[C@H](C)NC(=O)[C@](C)(c2ccccc2)NC(=O)[C@H](Cc2c[nH]c3ncccc23)NC(=O)[C@H]([C@@H](C)O)NC(=O)[C@@H]2CCCN2C(=O)[C@H](Cc2ccc(O)cc2)NC(=O)[C@H](C(C)(C)C)NC1=O` [Compound 190] (Ac-C[Tle]YPT[Trp(7-aza)][X1]AY[αMeV]T[dC]-NH2; linker 1-12 via mXylylene), the IC50 in assay [1] was in the range of 21000 to 50000 nM; at PCSK9 [2], 250 to 2000 nM; on PCSK9 [3], 1000 to 21000 nM.

In the case of `CCC[C@@H]1NC(=O)[C@H](Cc2ccc(O)cc2)NC(=O)[C@H](C)NC(=O)[C@]2(C)CCC/C=C/CCC[C@](C)(NC1=O)C(=O)NCCCCCNC(=O)CCC[C@H](NC(C)=O)C(=O)N[C@@H](C(C)(C)C)C(=O)N[C@@H](Cc1ccc(O)cc1)C(=O)N1CCC[C@H]1C(=O)N[C@@H]([C@@H](C)O)C(=O)N[C@@H](Cc1cccc3ccccc13)C(=O)N2` [Compound 347] (Ac-[Aad][Tle]YPT[1Nal][S5]AY[Nva][S5]; linker 1-C via NH(CH2)5NH; staple (E) 7-11), the half-inhibitory concentration (IC50) (in assay [1]; on PCSK9 [3]) was 100 to 1000 nM each time.

In the case of `CC(=O)N[C@H]1CCCCNC(=O)CCC[C@@H](C(N)=O)NC(=O)[C@H]([C@@H](C)O)NC(=O)[C@](C)(C(C)C)NC(=O)[C@H](Cc2ccc(O)cc2)NC(=O)[C@H](C)NC(=O)C(C)(C)NC(=O)[C@H](Cc2c[nH]c3ncccc23)NC(=O)[C@H]([C@@H](C)O)NC(=O)[C@@H]2C[C@@H]3CN2C(=O)[C@H](Cc2ccc(O)cc2)NC(=O)[C@@H](NC1=O)C(C)(C)SCc1ccc(cc1)CS3` [Compound 349] (Ac-K[Pen]Y[X3]T[Trp(7-aza)][Aib]AY[αMeV]T[Aad]-NH2; lactam 1-12; thioether 2-4), the IC50 (in assay [1]; on PCSK9 [3]) was 1 to 100 nM each time.

Regarding `CC(=O)N[C@H]1CCCCNC(=O)CCC[C@@H](C(N)=O)NC(=O)[C@H]([C@@H](C)O)NC(=O)[C@](C)(C(C)C)NC(=O)[C@H](Cc2ccc(O)cc2)NC(=O)[C@H](C)NC(=O)C(C)(C)NC(=O)[C@H](Cc2c[nH]c3ncccc23)NC(=O)[C@H]([C@@H](C)O)NC(=O)[C@@H]2C[C@@H]3CN2C(=O)[C@H](Cc2ccc(O)cc2)NC(=O)[C@@H](NC1=O)C(C)(C)SC/C=C/CS3` [Compound 350] (Ac-K[Pen]Y[X2]T[Trp(7-aza)][Aib]AY[αMeV]T[Aad]-NH2; lactam 1-12; thioether 2-4), the concentration for half-maximal inhibition (IC50) (in assay [1]; at PCSK9 [3]) was 100 to 1000 nM in each case.

(Values after patent US11814444B2, “Cyclic polypeptides for PCSK9 inhibition” (Ra Pharmaceuticals, Inc., priority 2018, dated 2023).)
